Here are results for 15 compounds from ChEMBL document CHEMBL1131488, “Dihydropyrancarboxamides related to zanamivir: a new series of inhibitors of influenza virus sialidases. 1. Discovery, synthesis, biological activity, and structure-activity relationships of 4-guanidino- and 4-amino-4H-pyran-6-carboxamides” (J Med Chem, 1998).

Data set [1] deals with Neuraminidase (Influenza A virus (A/Puerto Rico/8/1934(H1N1)), UniProt P03468). The experiment in a line: Inhibition of sialidase (Flu A, 5 nM).
Chain of Neuraminidase (Influenza A virus (A/Puerto Rico/8/1934(H1N1)), UniProt P03468) (P03468 whole entry): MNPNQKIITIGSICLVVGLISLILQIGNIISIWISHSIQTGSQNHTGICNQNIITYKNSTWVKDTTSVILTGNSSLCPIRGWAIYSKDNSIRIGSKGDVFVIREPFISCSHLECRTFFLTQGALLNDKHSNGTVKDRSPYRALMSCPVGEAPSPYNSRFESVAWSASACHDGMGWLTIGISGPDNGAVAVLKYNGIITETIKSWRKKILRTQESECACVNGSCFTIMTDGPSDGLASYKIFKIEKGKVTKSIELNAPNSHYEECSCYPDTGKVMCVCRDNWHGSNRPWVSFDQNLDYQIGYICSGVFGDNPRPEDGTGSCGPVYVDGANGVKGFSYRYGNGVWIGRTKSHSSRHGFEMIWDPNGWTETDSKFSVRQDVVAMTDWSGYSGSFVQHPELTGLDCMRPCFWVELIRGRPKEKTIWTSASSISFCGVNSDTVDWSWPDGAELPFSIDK
Data set [2] concerns the target T1, Neuraminidase (Influenza B virus (strain B/Lee/1940), UniProt P03474).
Data set [3] has as its target Neuraminidase (Influenza A virus (A/Puerto Rico/8/1934(H1N1)), UniProt P03468).
For data set [4], the target named is T1, Neuraminidase. This is another data set of the same source.
The target in data set [5] is Neuraminidase (Influenza A virus (A/Puerto Rico/8/1934(H1N1)), UniProt P03468). The experiment in a line: Inhibition of influenza A virus sialidase activity.
For data set [6], the target named is T1, Neuraminidase. In words: Inhibition of influenza B virus sialidase activity.
The nature of data set [7]: Clp, plasma clearance at a dose of 50 mg/kg. In kind it is ADME, organism-based. Further details: dose 50 mg/kg. As to conditions: read-out: Clp.
Data set [8] can be described thus: Vss, volume of distribution at steady state at a dose of 50 mg/kg. The class given is ADME, organism-based. Further details: dose 50 mg/kg. As to conditions: in vivo, read-out: Vss.
A short description of data set [9]: t1/2, plasma elimination half life, the time taken for the plasma concentrations to fall by one half, once distribution is complete at a dose of 50 mg/kg. The class given is ADME, organism-based. Further details: dose 50 mg/kg.
Data set [10] relates to Mus musculus. The experiment in a line: Compound was tested for concentration of intranasally administered drug (10 mg/kg) which reduces virus titer by 90%. In kind it is functional. As to conditions: inhaled or nasal.
The test system of data set [11] is Mus musculus. The experiment in a line: Compound was tested for in vivo efficacy in mouse model of influenza A virus A/Singapore/1/57 at dose of 1 mg/kg. The class given is functional.
The test system of data set [12] is Mus musculus. In words: Compound was tested for in vivo efficacy in mouse model of influenza A virus A/Singapore/1/57 at dose of 50 mg/kg. In kind it is functional.
In data set [13] the test system is Mus musculus. The experiment in a line: Compound was tested for in vivo efficacy in mouse model of influenza A virus A/Singapore/1/57 at dose of 10 mg/kg. The class given is functional.
The target of data set [14] is Neuraminidase (Influenza A virus (A/Puerto Rico/8/1934(H1N1)), UniProt P03468). This is another data set of the same source.
Data set [15] has the same target. The source holds these as a separate data set.
The target is the same in data set [16]. This is another data set of the same source.
The target is the same in data set [17]. The source holds these as a separate data set.
Data set [18] in a line: Clp, plasma clearance at a dose of 10 mg/kg. In kind it is ADME, organism-based. On the set-up: dose 10 mg/kg. As to conditions: read-out: Clp.
Data set [19] can be described thus: Vss, volume of distribution at steady state at a dose of 10 mg/kg. The class given is ADME, organism-based. Further details: dose 10 mg/kg. As to conditions: in vivo, read-out: Vss.
Data set [20] is described as follows: t1/2, plasma elimination half life, the time taken for the plasma concentrations to fall by one half, once distribution is complete at a dose of 10 mg/kg. In kind it is ADME, organism-based. Further details: dose 10 mg/kg.
Data set [21] relates to Mus musculus. The experiment in a line: Compound was tested for concentration of intranasally administered drug (1 mg/kg) which reduces virus titer by 90%. The class given is functional. As to conditions: inhaled or nasal.
Data set [22] relates to Mus musculus. The experiment in a line: Compound was tested for in vivo efficacy in mouse model of influenza A virus A/Singapore/1/57 at dose of 0.1 mg/kg. In kind it is functional.
For data set [23], the system named is Mus musculus. The experiment in a line: Compound was tested for concentration of intranasally administered drug (0.5 mg/kg) which reduces virus titer by 90%. As to conditions: inhaled or nasal. In kind it is functional.
Data set [24] has as its system Mus musculus. In words: Compound was tested for in vivo efficacy in mouse model of influenza A virus A/Singapore/1/57 at dose of 0.5 mg/kg (in). The class given is functional.
Data set [25] concerns Mus musculus. The experiment in a line: Compound was tested for in vivo efficacy in mouse model of influenza A virus A/Singapore/1/57 at dose of 50 mg/kg (ip). In kind it is functional.

T1 sequence (P03474 whole entry): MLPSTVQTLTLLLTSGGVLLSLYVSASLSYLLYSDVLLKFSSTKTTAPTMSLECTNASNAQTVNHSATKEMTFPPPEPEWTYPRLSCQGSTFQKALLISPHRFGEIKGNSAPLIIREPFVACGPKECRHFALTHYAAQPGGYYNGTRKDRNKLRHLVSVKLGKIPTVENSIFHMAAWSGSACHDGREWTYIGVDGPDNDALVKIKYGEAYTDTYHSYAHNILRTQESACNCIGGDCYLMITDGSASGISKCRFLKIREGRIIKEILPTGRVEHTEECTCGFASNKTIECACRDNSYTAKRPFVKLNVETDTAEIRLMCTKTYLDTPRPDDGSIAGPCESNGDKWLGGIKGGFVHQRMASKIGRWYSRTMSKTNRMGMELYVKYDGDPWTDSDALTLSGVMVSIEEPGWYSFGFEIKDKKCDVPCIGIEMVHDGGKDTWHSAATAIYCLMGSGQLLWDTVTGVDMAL

A word on the IC50: it is the point on the concentration scale where inhibition reaches its midpoint. Low readings indicate greater potency, high ones weaker potency. Consider `CC(=O)N[C@@H]1[C@@H](N)C=C(C(=O)O)O[C@H]1C(=O)NC1CCCCC1`, for which the IC50 in data set [1] was 19000 nM; against Neuraminidase [2] it was greater than 450000 nM.
Regarding `CC(=O)N[C@@H]1[C@@H](N)C=C(C(=O)O)O[C@H]1C(=O)N1C(C)CCN1C` (stereo partly drawn), the IC50 in [3] was 52 nM; at Neuraminidase [4], 20000 nM; in data set [5] it was 210 nM; against Neuraminidase [6] it was 13000 nM.
Usually half-life stands for the time needed for the level to fall by half in the phase considered. A higher half-life goes with slow loss. On to `CCCN(C)C(=O)[C@@H]1OC(C(=O)O)=C[C@H](NC(=N)N)[C@H]1NC(C)=O`, for which the clearance in [7] came out at 17.8 mL/min/kg. Besides, the Vd in [8] is 0.3 L/kg. In [9], this compound gave a half-life of 12.6 min. The same compound registered an ED90 in the data set on Mus musculus [10] of less than 1 mg/kg. The entries for the “Reduction in virus titer” value in the data set with Mus musculus [11], in the data set on Mus musculus [12] and with Mus musculus [13] were 95%, 74.5% and 99.9%, respectively. In addition, the IC50 worked out at 3 nM in data set [14], 5.6 nM in [15], 28 nM in [16] and 26 nM in data set [17].
In the case of `CCN(CC)C(=O)[C@@H]1OC(C(=O)O)=C[C@H](NC(=N)N)[C@H]1NC(C)=O`, the “Reduction in virus titer” value in the data set on Mus musculus [12] stood at 89%.
Regarding `C=CCN(CC=C)C(=O)[C@@H]1OC(C(=O)O)=C[C@H](N)[C@H]1NC(C)=O`, the IC50 was determined as 40 nM in data set [1] and 8400 nM at Neuraminidase [2].
On to `CCN(CC)C(=O)[C@@H]1OC(C(=O)O)=C[C@H](N)[C@H]1NC(C)=O`, for which the IC50 in data set [14] was 5 nM; in data set [15], 40 nM; in data set [16], 20 nM; at Neuraminidase [6], 360 nM; in data set [17] it was 85 nM.
`CC(=O)N[C@@H]1[C@@H](NC(=N)N)C=C(C(=O)O)O[C@H]1C(=O)NCCN` came in with an IC50 in data set [1] of 20000 nM.
As for `CCCN(CCC)C(=O)[C@@H]1OC(C(=O)O)=C[C@H](N)[C@H]1NC(C)=O`, in [7], the clearance turned out to be 12.5 mL/min/kg. Besides, the Vd in [8] was found to be 0.4 L/kg. Further, in [9], the half-life is 21 min. In the data set on Mus musculus [10], this compound showed an ED90 of 2.1 mg/kg. In addition, the “Reduction in virus titer” value came out at 82% in the data set on Mus musculus [11] and 99.84% in the data set with Mus musculus [13]. For the same compound, the half-maximal inhibitory concentration (IC50) in data set [14] is 3 nM; in [15], 8 nM; in [16] it was 20 nM; in data set [17], 30 nM.
Take `CCCN(C)C(=O)[C@@H]1OC(C(=O)O)=C[C@H](N)[C@H]1NC(C)=O`: the IC50 in data set [14] was 180 nM; in data set [15], 3700 nM; in data set [16] it was 110 nM; in [17], 4700 nM.
Regarding `CCCN(CCC)C(=O)[C@@H]1OC(C(=O)O)=C[C@H](NC(=N)N)[C@H]1NC(C)=O`, the clearance in data set [18] came out at 6 mL/min/kg. Also, the Vd in [19] was 0.5 L/kg. This compound gave a half-life in [20] of 22.2 min. Further, in the data set with Mus musculus [21], the ED90 is less than 0.01 mg/kg. The results for the “Reduction in virus titer” value in the data set with Mus musculus [22], in the data set on Mus musculus [11] and in the data set on Mus musculus [12] were 99.3%, 99.93% and 86%, respectively.
For `CC(=O)N[C@H]1[C@H]([C@H](O)[C@H](O)CO)OC(C(=O)O)=C[C@@H]1NC(=N)N` [ZANAMIVIR], the clearance in [7] came out at 24.9 mL/min/kg. Besides, in [8], the Vd was 0.3 L/kg. This compound had a half-life in data set [9] of 9.6 min. In addition, the ED90 in the data set on Mus musculus [23] stood at 0.03 mg/kg. For the same compound, the “Reduction in virus titer” value with Mus musculus [24] is reported as 99.5%; in the data set with Mus musculus [25], 96.2%.
With `CC(=O)N[C@@H]1[C@@H](N)C=C(C(=O)O)O[C@H]1C(=O)NCCN`, in data set [1], the IC50 is greater than 390000 nM.
In data set [1], `CC(=O)N[C@@H]1[C@@H](N)C=C(C(=O)O)O[C@H]1C(=O)NCCO` registered an IC50 of 420000 nM.
`CC(=O)N[C@@H]1[C@@H](N)C=C(C(=O)O)O[C@H]1C(=O)N(CCN=[N+]=[N-])CCc1ccccc1`: the IC50 in data set [3] was determined as 9 nM; against Neuraminidase [4], 28000 nM.
In turn, `CC(=O)N[C@@H]1[C@@H](N)C=C(C(=O)O)O[C@H]1C(=O)NCC(=O)O` showed an IC50 in [1] greater than 480000 nM.
